Results from PMC5903342 (Oxidative Medicine and Cellular Longevity, 2018).

Assays:
Format in all cases: cell-based
[1] = test system: Salmonella enterica serovar typhimurium TA104; experiment: Antimutagenicity assay (Salmonella/microsome), strain TA104; details: TA104, cotreatment
Text: (§1) Salmonella enterica serovar typhimurium (S. typhimurium) strains TA100, TA1535, TA104, and TA102 from the authors' laboratory stock were used as described by Maron and Ames in the antimutagenicity assay.
(§2) We carried out the coexposure protocol of the antimutagenicity assay to investigate the potential of the compound to protect against alkylation-mediated genetic mutation in S. typhimurium TA100, TA102, TA104, and TA1535 strains according to Ajith and Soja. The test proceeded both in the absence and presence of a metabolic activation system (4% S9 mix, Aroclor preinduced, from MOLTOX Inc., USA). DMSO 1% served as the negative control. […] The mixtures were incubated in a shaker at 37°C (preincubation) under light protection. After a total of 60 min of cotreatment, the mixtures were added to and mixed with 2 mL top agar containing 0.05 mmol/L L-histidine and D-biotin for the S. typhimurium strains. Each of these was then spread on a minimal glucose agar (1.5% agar, Vogel-Bonner medium E, containing 2% glucose) plate. After the top agar solidified, the plates were incubated at 37°C for 60–72 h. Each tester strain was assayed in triplicate and repeated at least twice, and the number of revertant colonies was counted for each tester strain and treatment group. The counts of revertant colonies were obtained to build a dose-response curve and calculate the percentage of reduction.

[2] = test system: Salmonella enterica serovar typhimurium TA102; experiment: Antimutagenicity assay (Salmonella/microsome), strain TA102; details: TA102, cotreatment
Text: as §1, §2

[3] = test system: Salmonella enterica serovar typhimurium TA100; experiment: Antimutagenicity assay (Salmonella/microsome), strain TA100 (co-, pre- and posttreatment)
[4] = +S9, CPA (150 μM), atorvastatin 20 μM
[5] = +S9, CPA (150 μM), atorvastatin 100 μM
[6] = +S9, CPA (150 μM), atorvastatin 200 μM
[7] = +S9, CPA (150 μM), atorvastatin 1000 μM
[8] = +S9, CPA (150 μM), atorvastatin 1000 μM, listed as Atorvastatin
[9] = −S9, MMS (100 μM), atorvastatin 20 μM
[10] = −S9, MMS (100 μM), atorvastatin 100 μM
[11] = −S9, MMS (100 μM), atorvastatin 200 μM
[12] = −S9, MMS (100 μM), atorvastatin 200 μM, listed as Atorvastatin
[13] = −S9, MMS (100 μM), atorvastatin 1000 μM
[14] = −S9, MMS (100 μM), atorvastatin 1000 μM, listed as Atorvastatin
[15] = TA100, cotreatment, +S9, CPA (150 μM), atorvastatin 20 μM
[16] = TA100, cotreatment, +S9, CPA (150 μM), atorvastatin 100 μM
[17] = TA100, cotreatment, +S9, CPA (150 μM), atorvastatin 200 μM
[18] = TA100, cotreatment, +S9, CPA (150 μM), atorvastatin 1000 μM
[19] = TA100, cotreatment, −S9, MMS (100 μM), atorvastatin 20 μM
[20] = TA100, cotreatment, −S9, MMS (100 μM), atorvastatin 100 μM
[21] = TA100, cotreatment, −S9, MMS (100 μM), atorvastatin 200 μM
[22] = TA100, cotreatment, −S9, MMS (100 μM), atorvastatin 1000 μM
[23] = TA100, posttreatment, +S9, CPA (150 μM), atorvastatin 20 μM
[24] = TA100, posttreatment, +S9, CPA (150 μM), atorvastatin 200 μM
[25] = TA100, posttreatment, +S9, CPA (150 μM), atorvastatin 1000 μM
[26] = TA100, posttreatment, −S9, MMS (100 μM), atorvastatin 20 μM
[27] = TA100, posttreatment, −S9, MMS (100 μM), atorvastatin 100 μM
[28] = TA100, posttreatment, −S9, MMS (100 μM), atorvastatin 200 μM
[29] = TA100, posttreatment, −S9, MMS (100 μM), atorvastatin 1000 μM
[30] = TA100, pretreatment, +S9, CPA (150 μM), atorvastatin 20 μM
[31] = TA100, pretreatment, +S9, CPA (150 μM), atorvastatin 100 μM
[32] = TA100, pretreatment, +S9, CPA (150 μM), atorvastatin 200 μM
[33] = TA100, pretreatment, +S9, CPA (150 μM), atorvastatin 1000 μM
[34] = TA100, pretreatment, −S9, MMS (100 μM), atorvastatin 20 μM
[35] = TA100, pretreatment, −S9, MMS (100 μM), atorvastatin 100 μM
[36] = TA100, pretreatment, −S9, MMS (100 μM), atorvastatin 200 μM
[37] = TA100, pretreatment, −S9, MMS (100 μM), atorvastatin 1000 μM

With `CC(C)c1c(C(=O)Nc2ccccc2)c(-c2ccccc2)c(-c2ccc(F)cc2)n1CC[C@@H](O)C[C@@H](O)CC(=O)O` [AVA, atorvastatin] the “% reduction” value [1, 4] was 19.29%, the “His+ (revertant colonies)” value [1, 4] was 969 ± 54 and the “% reduction” value [1, 5] was 25%. The “His+ (revertant colonies)” value [1, 5] was 933 ± 38, the “% reduction” value ([1]; +S9, CPA (150 μM), atorvastatin 100 μM, listed as Atorvastatin) was 25.00^∗ % and the “% reduction” value [1, 6] was 29%. For the same compound, the “His+ (revertant colonies)” value [1, 6] was 905 ± 42, the “% reduction” value ([1]; +S9, CPA (150 μM), atorvastatin 200 μM, listed as Atorvastatin) was 29.29^∗ % and the “% reduction” value [1, 7] was 41%. For the same compound, the “His+ (revertant colonies)” value [1, 7] was 829 ± 11, the “% reduction” value [1, 8] was 41.43^∗ % and the “% reduction” value [1, 9] was 19.36%. The “His+ (revertant colonies)” value [1, 9] was 801 ± 32, the “% reduction” value [1, 10] was 24.19% and the “His+ (revertant colonies)” value [1, 10] was 776 ± 64. The “% reduction” value [1, 11] was 32.3%, the “His+ (revertant colonies)” value [1, 11] was 736 ± 91 and the “% reduction” value [1, 12] was 32.26^∗ %. The “% reduction” value [1, 13] was 55.7%, the “His+ (revertant colonies)” value [1, 13] was 620 ± 28 and the “% reduction” value [1, 14] was 55.65^∗ %. For the same compound, the “% reduction” value [2, 4] was 7.27%, the “His+ (revertant colonies)” value [2, 4] was 566 ± 54 and the “% reduction” value [2, 5] was 9.09%. For the same compound, the “His+ (revertant colonies)” value [2, 5] was 560 ± 38, the “% reduction” value [2, 6] was 14.55% and the “His+ (revertant colonies)” value [2, 6] was 543 ± 42. The “% reduction” value [2, 7] was 30%, the “His+ (revertant colonies)” value [2, 7] was 496 ± 11 and the “% reduction” value [2, 8] was 30.00^∗ %. For the same compound, the “% reduction” value [2, 9] was 16.03%, the “His+ (revertant colonies)” value [2, 9] was 525 ± 32 and the “% reduction” value [2, 10] was 19.08%. The “His+ (revertant colonies)” value [2, 10] was 515 ± 64, the “% reduction” value [2, 11] was 29% and the “His+ (revertant colonies)” value [2, 11] was 483 ± 91. The “% reduction” value [2, 12] was 29.01^∗ %, the “% reduction” value [2, 13] was 41.2% and the “His+ (revertant colonies)” value [2, 13] was 443 ± 28. The “% reduction” value [2, 14] was 41.22^∗ %, the “% reduction” value [3, 15] was 2.65% and the “His+ (revertant colonies)” value [3, 15] was 235 ± 22. The “% reduction” value [3, 16] was 6.19%, the “His+ (revertant colonies)” value [3, 16] was 230 ± 31 and the “% reduction” value [3, 17] was 11.50%. For the same compound, the “His+ (revertant colonies)” value [3, 17] was 224 ± 15, the “% reduction” value [3, 18] was 17.70% and the “His+ (revertant colonies)” value [3, 18] was 216 ± 25. The “% reduction” value [3, 19] was 7.14%, the “His+ (revertant colonies)” value [3, 19] was 204 ± 18 and the “% reduction” value [3, 20] was 12.5%. The “His+ (revertant colonies)” value [3, 20] was 198 ± 22, the “% reduction” value [3, 21] was 19.64% and the “His+ (revertant colonies)” value [3, 21] was 190 ± 13. The “% reduction” value [3, 22] was 23.21%, the “His+ (revertant colonies)” value [3, 22] was 186 ± 14 and the “Reduction of DNA injuries caused by MMS or CPA” value ([3]; TA100, posttreatment) was “not able to reduce”. For the same compound, the “% reduction” value [3, 23] was 12.04%, the “His+ (revertant colonies)” value [3, 23] was 257 ± 5 and the “% reduction” value ([3]; TA100, posttreatment, +S9, CPA (150 μM), atorvastatin 100 μM) was 17.44%. The “% reduction” value [3, 24] was 18.49%, the “His+ (revertant colonies)” value [3, 24] was 216 ± 8 and the “% reduction” value [3, 25] was 21.48%. The “His+ (revertant colonies)” value [3, 25] was 207 ± 23, the “% reduction” value [3, 26] was 5.69% and the “His+ (revertant colonies)” value [3, 26] was 257 ± 26. For the same compound, the “% reduction” value [3, 27] was 11.86%, the “His+ (revertant colonies)” value [3, 27] was 248 ± 23 and the “% reduction” value [3, 28] was 20.10%. For the same compound, the “His+ (revertant colonies)” value [3, 28] was 237 ± 22, the “% reduction” value [3, 29] was 23.00% and the “His+ (revertant colonies)” value [3, 29] was 233 ± 26. The “% reduction” value [3, 30] was 79.4^∗ %, the “His+ (revertant colonies)” value [3, 30] was 130 ± 30 and the “% reduction” value [3, 31] was 81.6^∗ %. For the same compound, the “His+ (revertant colonies)” value [3, 31] was 127 ± 19, the “% reduction” value [3, 32] was 92.59^∗ % and the “His+ (revertant colonies)” value [3, 32] was 111 ± 9. For the same compound, the “% reduction” value [3, 33] was 97.92^∗ %, the “His+ (revertant colonies)” value [3, 33] was 103 ± 2 and the Antimutagenic activity ([3]; TA100, pretreatment, all concentrations, presence and absence of metabolic conditions) was “exerted antimutagenic activity”. For the same compound, the “% reduction” value [3, 34] was 45.97^∗ %, the “His+ (revertant colonies)” value [3, 34] was 171 ± 14 and the “% reduction” value [3, 35] was 88.57^∗ %. For the same compound, the “His+ (revertant colonies)” value [3, 35] was 117 ± 2, the “% reduction” value [3, 36] was 91.43^∗ % and the “His+ (revertant colonies)” value [3, 36] was 113 ± 6. For the same compound, the “% reduction” value [3, 37] was 98.7^∗ % and the “His+ (revertant colonies)” value [3, 37] was 103 ± 4.
